1 molecule from patent US6525058B1, “Pharmaceutical composition for oral use” (Yamanouchi Pharmaceutical Co., LTD, priority 1999, dated 2003) can be followed below.

The nature of this series: Stability of gantofiban citrate per se and when compounded with common fillers, binders and disintegrating agents. Format: physicochemical.

Structures can show the parent of a compound that is named as a salt.

In the case of `CCOC(=O)CN1CCN(C[C@@H]2CN(c3ccc(C(N)=NC(=O)OC)cc3)C(=O)O2)CC1` [gantofiban citrate, 1-ethyl methylester 4-[[(5R)-3-[p-(carboxyamidino)phenyl]-2-oxo-5-oxazolidinyl]methyl]-1-piperazineacetate], the “Stability in a preparation containing it” value (compounded with fillers, binders and disintegrating agents (lactose, D-mannitol, finely crystalline cellulose, corn starch etc.)) is given as “decomposed with a lapse of time”. Besides, the “Stability of the substance per se” value (gantofiban citrate alone) is “stable substance”.
